This note sets out measurements from ChEMBL document CHEMBL1201862, “PubChem BioAssay data set” (2004).

Among the test systems are SK-OV-3; SNB-75; OVCAR-5; UACC-62; MDA-MB-435; OVCAR-8; HCT-116; HOP-62; A498; HCT-15; M14; UACC-257; T47D; NCI-H226; NCI-H460; SF-295; HT-29; MCF7; NCI-H23.
What all share (experiment): NCI tumour cell line growth inhibition, 48 h

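Test compounds were applied to cells in 96-well plates for 48 hours at 5 doses. GI50 marks 50% less growth.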 Activity calls are given as the source filed them. Rule as the data show it: active = GI50 up to about 1.1 µM and inactive = higher.

For the compound `NCCNc1ncnc2ccc(Cl)cc12`, the GI50 was > 100 µM (inactive) with SK-OV-3; 97.5 µM (inactive) in the assay with SNB-75; > 100 µM (inactive) in the assay with OVCAR-5; 93.5 µM (inactive) in the assay with UACC-62; > 100 µM (inactive) in the assay on MDA-MB-435; 74.1 µM (inactive) in the assay on OVCAR-8. Moreover, the GI50 in the assay with HCT-116 was 67.8 µM (inactive); in the assay with HOP-62, > 100 µM (inactive); with A498, 37.9 µM (inactive); with HCT-15, greater than 100 µM; with M14 it was > 100 µM (inactive); in the assay with UACC-257, 36 µM (inactive). The GI50 in the assay on T47D is > 100 µM (inactive); in the assay on NCI-H226 it was > 100 µM (inactive); with NCI-H460, 32.8 µM (inactive); with SF-295 it was > 100 µM (inactive); in the assay with HT-29, 66.8 µM (inactive); with MCF7, 96.8 µM (inactive). Moreover, in the assay on NCI-H23, the GI50 was > 100 µM (inactive).
Take `O=C1/C(=C\c2cccc(Oc3ccccc3)c2)SC(c2ccccc2)N1c1ccc(Cl)cc1` (centres undefined): the GI50 in the assay on SK-OV-3 was 14.1 µM (inactive); in the assay with SNB-75 it was 90.4 µM (inactive); in the assay with OVCAR-5, > 39.7 µM (inactive); in the assay with UACC-62, 9.04 µM (inactive); with MDA-MB-435 it was 2.24 µM (inactive); in the assay with OVCAR-8 it was 32.9 µM (inactive). The GI50 in the assay on HCT-116 is 10.3 µM (inactive); in the assay on HOP-62, > 57.1 µM (inactive); in the assay on A498 it was > 95.9 µM (inactive); with HCT-15, 7.55 µM; with M14, 3.17 µM (inactive); with UACC-257, 41.9 µM (inactive). Moreover, the GI50 is 5.37 µM (inactive) with T47D; > 100 µM (inactive) in the assay on NCI-H226; 24.5 µM (inactive) in the assay on NCI-H460; 7.11 µM (inactive) with SF-295; 30.8 µM (inactive) with HT-29; 16.3 µM (inactive) in the assay with MCF7. In the assay with NCI-H23, the GI50 is 15.8 µM (inactive).
Regarding `CCOC(=O)[C@@H]1C2C(=C[C@H]3[C@H]1C(=O)N1CCCC[C@H]31)CCCN2C(=O)OCc1ccccc1` (some centres undefined), the GI50 in the assay with SK-OV-3 was 94.8 µM (inactive); with SNB-75 it was 75.7 µM (inactive); in the assay on OVCAR-5, 76.4 µM (inactive); in the assay with UACC-62 it was 17.4 µM (inactive); with MDA-MB-435, 35 µM (inactive); in the assay with OVCAR-8, 35.5 µM (inactive). Further, the GI50 with HCT-116 is 35.6 µM (inactive); in the assay with HOP-62, 42.5 µM (inactive); in the assay with A498, 23.6 µM (inactive); in the assay on HCT-15, 32.8 µM; in the assay on M14, 38.8 µM (inactive); in the assay with UACC-257, 37.6 µM (inactive). In addition, the GI50 in the assay with T47D is 29.3 µM (inactive); in the assay with NCI-H226, 70.5 µM (inactive); with NCI-H460 it was 23.8 µM (inactive); in the assay with SF-295, 32.5 µM (inactive); in the assay on HT-29, 30.3 µM (inactive); in the assay with MCF7 it was 29.5 µM (inactive). In addition, the GI50 in the assay with NCI-H23 was 29.3 µM (inactive).
As to `OC1CCC(COC(c2ccccc2)(c2ccccc2)c2ccccc2)O1` (centres undefined), the GI50 with SK-OV-3 is 20.2 µM (inactive); in the assay on SNB-75, 13.4 µM (inactive); with OVCAR-5, 22.9 µM (inactive); with UACC-62, 17.2 µM (inactive); in the assay with MDA-MB-435 it was 21.5 µM (inactive); in the assay on OVCAR-8, 17.9 µM (inactive). In addition, the GI50 in the assay on HCT-116 is 16.7 µM (inactive); in the assay with HOP-62 it was 19.6 µM (inactive); with A498 it was 20.2 µM (inactive); with HCT-15, 16.9 µM; in the assay with M14 it was 18.7 µM (inactive); in the assay with UACC-257 it was 16.8 µM (inactive). Also, the GI50 in the assay on T47D is 20.2 µM (inactive); in the assay with NCI-H226, 24.2 µM (inactive); with NCI-H460, 21 µM (inactive); in the assay on SF-295, 15.9 µM (inactive); with HT-29, 18.3 µM (inactive); in the assay with MCF7, 17.1 µM (inactive). Moreover, in the assay on NCI-H23, the GI50 was 18 µM (inactive).
Regarding `CN1CCN(CCCCN2c3ccccc3Sc3ccc(N=[N+]=[N-])cc32)CC1`, the GI50 in the assay on SK-OV-3 was > 10 µM (inactive); in the assay on SNB-75, 4.55 µM (inactive); in the assay on OVCAR-5, 9.55 µM (inactive); in the assay on UACC-62, 2.08 µM (inactive); with MDA-MB-435, 2.07 µM (inactive); with OVCAR-8, 13.5 µM (inactive). For the same compound, the GI50 in the assay on HCT-116 was 3.72 µM (inactive); in the assay with HOP-62, 15.2 µM (inactive); in the assay with A498, 13.8 µM (inactive); with HCT-15, 7.36 µM; in the assay with M14, 2.05 µM (inactive); with UACC-257 it was 2.06 µM (inactive). The GI50 with T47D is 14.9 µM (inactive); in the assay with NCI-H226, 14.3 µM (inactive); with NCI-H460, 6.01 µM (inactive); with SF-295, 12.2 µM (inactive); with HT-29 it was 2.07 µM (inactive); in the assay on MCF7 it was 4.17 µM (inactive). Further, in the assay on NCI-H23, the GI50 was 17.8 µM (inactive).
Consider `CN(C)/C=C1\CCc2ccc([N+](=O)[O-])cc2C1=O`, for which the GI50 was > 100 µM (inactive) with SK-OV-3; > 100 µM (inactive) with SNB-75; > 100 µM (inactive) in the assay with OVCAR-5; 24.5 µM (inactive) with UACC-62; 19.1 µM (inactive) with MDA-MB-435; 45.7 µM (inactive) in the assay on OVCAR-8. Also, the GI50 with HCT-116 is 17.9 µM (inactive); in the assay on HOP-62 it was > 100 µM (inactive); in the assay with A498 it was > 100 µM (inactive); in the assay with HCT-15, 44 µM; in the assay on M14, 89.9 µM (inactive); in the assay on UACC-257, 19.1 µM (inactive). The GI50 is 26.7 µM (inactive) in the assay on T47D; > 100 µM (inactive) with NCI-H226; 28.4 µM (inactive) in the assay with NCI-H460; > 100 µM (inactive) in the assay on SF-295; 24.3 µM (inactive) in the assay with HT-29; 26 µM (inactive) in the assay with MCF7. Further, the GI50 with NCI-H23 is 53.6 µM (inactive).
`COC(=O)C[C@H](CCSC)NC(=O)C[C@H](CCSC)NC(=O)C[C@H](CCSC)NC(=O)OC(C)(C)C`: the GI50 with SK-OV-3 is 20 µM (inactive); with SNB-75 it was 13.4 µM (inactive); in the assay with OVCAR-5, > 100 µM (inactive); in the assay with UACC-62, 27.9 µM (inactive); in the assay on MDA-MB-435 it was 39.5 µM (inactive); in the assay with OVCAR-8, 28.7 µM (inactive). Also, the GI50 with HCT-116 was 37.1 µM (inactive); with HOP-62, 39.4 µM (inactive); in the assay on A498, 21 µM (inactive); in the assay on HCT-15, greater than 100 µM; in the assay with M14, 57.5 µM (inactive); in the assay with UACC-257, 68.5 µM (inactive). For the same compound, the GI50 is 63.1 µM (inactive) in the assay with T47D; 41.7 µM (inactive) in the assay with NCI-H226; 69.8 µM (inactive) in the assay with NCI-H460; 21.8 µM (inactive) in the assay with SF-295; > 100 µM (inactive) with HT-29; 38.1 µM (inactive) with MCF7. For the same compound, the GI50 in the assay with NCI-H23 was 47.2 µM (inactive).
As for `CC(=N)OC1CC2CCC1(C)C2(C)C` (centres undefined), the GI50 with SK-OV-3, in the assay on SNB-75, in the assay with OVCAR-5, in the assay on UACC-62, with MDA-MB-435 and with OVCAR-8 was > 100 µM (inactive) in each case. In addition, the GI50 in the assay with HCT-116 is > 100 µM (inactive); with HOP-62 it was > 100 µM (inactive); in the assay with A498 it was > 100 µM (inactive); in the assay with HCT-15, greater than 100 µM; in the assay with M14, > 100 µM (inactive); in the assay on UACC-257, > 100 µM (inactive). Also, the GI50 in the assay on T47D, in the assay on NCI-H226, in the assay on NCI-H460, in the assay on SF-295, in the assay on HT-29 and with MCF7 was > 100 µM (inactive) throughout. Further, in the assay with NCI-H23, the GI50 is > 100 µM (inactive).
With `Oc1[nH]c(Nc2ccc(F)c(Cl)c2)nc2ncnc1-2`, the GI50 is > 100 µM (inactive) in the assay on SK-OV-3; 25.9 µM (inactive) in the assay with SNB-75; > 100 µM (inactive) in the assay on OVCAR-5; > 100 µM (inactive) in the assay on UACC-62; > 100 µM (inactive) in the assay with MDA-MB-435; > 100 µM (inactive) with OVCAR-8. In addition, the GI50 in the assay with HCT-116 is > 100 µM (inactive); with HOP-62, > 100 µM (inactive); in the assay on A498, > 100 µM (inactive); with HCT-15, greater than 100 µM; in the assay with M14 it was > 100 µM (inactive); in the assay with UACC-257 it was > 100 µM (inactive). In addition, the GI50 with T47D, in the assay with NCI-H226, in the assay on NCI-H460, in the assay with SF-295, in the assay with HT-29 and with MCF7 was > 100 µM (inactive) in each case. Besides, the GI50 in the assay with NCI-H23 is > 100 µM (inactive).
Take `COc1ccc(-c2nc3ccc(C)cc3o2)c(OC)c1`: the GI50 with SK-OV-3 is 41.5 µM (inactive); in the assay on SNB-75 it was 16.7 µM (inactive); with OVCAR-5, 14.9 µM (inactive); in the assay on UACC-62 it was 23.5 µM (inactive); in the assay with MDA-MB-435, 21.6 µM (inactive); with OVCAR-8 it was 26.4 µM (inactive). The GI50 with HCT-116 was 17.9 µM (inactive); in the assay on HOP-62, 26.8 µM (inactive); in the assay on A498, 18.6 µM (inactive); in the assay on HCT-15, 22.5 µM; in the assay with M14 it was 18.2 µM (inactive); with UACC-257, 17.7 µM (inactive). Besides, the GI50 in the assay on T47D was 30.1 µM (inactive); in the assay with NCI-H226, 30 µM (inactive); in the assay with NCI-H460 it was 2.93 µM (inactive); in the assay on SF-295, 19.9 µM (inactive); in the assay on HT-29, 5.28 µM (inactive); in the assay with MCF7, 30 µM (inactive). In addition, the GI50 in the assay on NCI-H23 is 27.8 µM (inactive).
In the case of `NS(=O)(=O)c1ccc(/N=N/c2nc3nc(O)nc(O)c3[nH]2)cc1`, the GI50 in the assay on SK-OV-3, in the assay with SNB-75, in the assay on OVCAR-5, in the assay with UACC-62, in the assay on MDA-MB-435 and in the assay on OVCAR-8 was > 100 µM (inactive) in each case. Moreover, the GI50 was > 100 µM (inactive) with HCT-116; > 100 µM (inactive) in the assay with HOP-62; > 100 µM (inactive) in the assay with A498; greater than 100 µM in the assay on HCT-15; > 100 µM (inactive) in the assay on M14; > 100 µM (inactive) in the assay with UACC-257. For the same compound, the GI50 in the assay on T47D, in the assay on NCI-H226, in the assay with NCI-H460, with SF-295, in the assay with HT-29 and in the assay with MCF7 was > 100 µM (inactive) each time. Also, the GI50 in the assay with NCI-H23 is > 100 µM (inactive).
